Among the data in ChEMBL document CHEMBL1135029, “Novel dihydropyrazine analogues as NPY antagonists” (Bioorg Med Chem Lett, 2002) are IC50 values, retold here.

Each structure is given as a SMILES string. A value given as a limit tells only on which side of the number the result lay.

One may read the IC50 as the concentration that gives 50% inhibition. Low readings indicate higher potency, high ones lower potency.

One test deals with T1, Neuropeptide Y receptor type 1 (Homo sapiens, UniProt P25929).
T1 sequence (P25929 whole entry): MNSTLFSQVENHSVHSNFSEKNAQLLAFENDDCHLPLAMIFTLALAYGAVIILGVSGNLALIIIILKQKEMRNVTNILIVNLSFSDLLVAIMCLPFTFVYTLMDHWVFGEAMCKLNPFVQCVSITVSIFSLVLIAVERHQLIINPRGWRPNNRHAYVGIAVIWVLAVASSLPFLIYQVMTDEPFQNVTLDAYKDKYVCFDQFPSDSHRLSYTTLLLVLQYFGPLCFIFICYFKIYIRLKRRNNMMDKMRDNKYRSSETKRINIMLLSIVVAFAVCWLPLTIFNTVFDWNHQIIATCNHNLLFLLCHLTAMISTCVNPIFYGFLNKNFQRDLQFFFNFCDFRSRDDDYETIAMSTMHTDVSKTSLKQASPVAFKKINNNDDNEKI
Nature of the test: Inhibition of I-PYY binding to Nueopeptide Y1 receptor expressed in human neuroblastoma SK-N-MC cells. Type of test: cell-based.
For the compound `COC(=O)C1=C(C)N=C(C)/C(=C(/O)OC)C1c1cccc(N/C(=N/CCCN2CCC(c3ccccc3)CC2)NC#N)c1` (stereo not drawn), the IC50 came to 5.4 nM. `COC(=O)C1=C(C)N=C(C)/C(=C(/O)OC)N1c1cccc(N/C(S)=N/CCCN2CCC(c3cccc(OC)c3)CC2)c1` returned an IC50 of 945 nM.

`COC(=O)C1=C(C)N=C(C)/C(=C(/O)OC)N1c1cccc(N/C(=N/CCCN2CCC(c3ccccc3)CC2)NC#N)c1` yielded a half-inhibitory concentration (IC50) of 268 nM.

Regarding `COC(=O)C1=C(C)N=C(C)/C(=C(/O)OC)C1c1cccc(N/C(=N/CCCN2CCC(C(C)(C)C)CC2)NC#N)c1` (stereo not drawn), the IC50 was less than 1 nM. For the compound `COC(=O)C1=C(C)N=C(C)/C(=C(/O)OC)C1c1cccc(N/C(S)=N/CCCN2CCN(C3CCCCC3)CC2)c1` (stereo not drawn), the IC50 was found to be 132 nM.

In the case of `COC(=O)C1=C(C)N=C(C)/C(=C(/O)OC)C1c1cccc(NC(=O)NCCCN2CCN(C3CCCCC3)CC2)c1` (stereo not drawn), the concentration for half-maximal inhibition (IC50) amounted to 176 nM. This IC50 and that of the compound before are within 1.5-fold of each other.

The compound `COC(=O)C1=C(C)N=C(C)/C(=C(/O)OC)N1c1cccc(NC(=O)NCCCN2CCC(c3cccc(OC)c3)CC2)c1` had an IC50 of 554 nM. Against the preceding compound, the IC50 is about 3.1-fold higher. Same read-out and setting: the same measure for `COC(=O)C1=C(C)N=C(C)/C(=C(/O)OC)N1c1cccc(N/C(S)=N/CCCN2CCN(C3CCCCC3)CC2)c1`: more than 1000 nM; for `COC(=O)C1=C(C)N=C(C)/C(=C(/O)OC)N1c1cccc(N/C(S)=N/CCCN2CCC(C(C)(C)C)CC2)c1`: more than 1000 nM. `COC(=O)C1=C(C)N=C(C)/C(=C(/O)OC)C1c1cccc(N/C(S)=N/CCCN2CCC(c3cccc(OC)c3)CC2)c1` (stereo not drawn) displayed a half-inhibitory concentration (IC50) of 12.8 nM. Compound `COC(=O)C1=C(C)N=C(C)/C(=C(/O)OC)N1c1cccc(NC(=O)NCCCN2CCN(C3CCCCC3)CC2)c1` registered an IC50 of 434 nM.

Regarding `COC(=O)C1=C(C)N=C(C)/C(=C(/O)OC)N1c1cccc(N/C(=N/CCCN2CCC(C(C)(C)C)CC2)NC#N)c1`, the IC50 is 231 nM.

In another test the target is T1, Neuropeptide Y receptor type 1. Nature of the test: Binding affinity against Neuropeptide Y receptor type 1 using I-PYY as a radioligand in human neuroblastoma SK-N-MC cells. In kind it is cell-based.
Turning to `COC(=O)C1=C(C)N=C(C)/C(=C(/O)OC)C1c1cccc(NC(=O)NCCCN2CCC(c3cccc(OC)c3)CC2)c1` (stereo not drawn), the concentration for half-maximal inhibition (IC50) was 4.2 nM.
